Like-named read-outs stand apart in the source and are kept apart here.
Legend:
[1] = test system: Krümmungssyndrom an der Ratte; assay: Analgesic effect: acetic acid-induced writhing syndrome in the rat; type: in vivo; details: peroral, 1 h before i.p. 3 % acetic acid, dose (by interpolation) reducing number of writhings by 50 %, counted for 20 min
Protocol: Diese Wirkung wird durch Auswertung des Krümmungssyndroms an der Ratte bestimmt. Das Krümmungssyndrom wird z.B..in weiblichen Ratten von 120-140 g (5 Tiere pro Gruppe) durch eine intraperitoneale Injektion von 0,2 ml einer 3 %igen Essigsäurelösung eine Stunde nach der oralen Verabreichung der geprüften Substanz, hervorgerufen. Die Krümmungs-Bewegungen der Versuchstiere werden während 20 Minuten gezählt.
Die analgetische (antinociceptive) Wirksamkeit einer Verbindung wird durch die Bestimmung der Dosis (durch Interpolieren), welche bei Kontrolltieren (die lediglich den Trägerstoff der Wirksubstanz erhalten haben) die Anzahl der Krümmungen um 50% vermindert, beurteilt. ( ED50).
Literatur: Ziel et al., Pain Res. and Therapy, Vol. 1, ed. Bonica and Albe, Raven Press N.Y., 1976, p. 517.

LDL-Cholesterin = assay: Effect on serum lipids and lipoproteins (LDL cholesterol) in male rats after oral treatment; type: in vivo, Ratten; details: 50 mg/kg peroral, once daily for 3 days, twice on day 4, serum 16 h after last dose
Source text: Die in den Präparaten der Erfindung verwendeten Verbindungen zeigen wertvolle pharmakologische Eigenschaften, z.B. hypolipidämische Wirkungen mit günstiger Beeinflussung des Lipoproteinspektrums, ferner, insbesondere Verbindungen der Formel I, worin R3 für einen heterocyelischen Rest aromatischen Charakters, in erster Linie Pyridyl steht, analgetische Effekte. Diese pharmakologischen Eigenschaften können in Tierversuchen, vorzugsweise an Säugetieren, z.B. Ratten nachgewiesen werden. Hierbei können die Verbindungen enteral oder parenteral, vorzugsweise oral, subkutan oder intraperitoneal in einem Dosisbereich von 1 bis 100 mg/kg/Tag verabreicht werden. Beispielsweise wird die Senkung von "low und very low-density"-Lipoproteinen (LDL und VLDL), sowie die Senkung von Cholesterin und Triglyceriden im Serum wie folgt bestimmt: Männlichen Ratten verabreicht man an 3 Tagen einmal täglich 50 mg Wirkstoff peroral. Am 4. Tag werden die Tiere 2-mal behandelt. Am 5. Tag wird Serum gewonnen und die Lipoproteine werden mit einer Ultrazentrifuge aufgetrennt. Im Serum und in den isolierten Lipoproteinfraktionen werden das Cholesterin und die Triglyceride bestimmt. [K.R. Müller und R.G. Cortesi, Artery 4 (6): 564-577 (1978)].
Männliche Ratten von 180-200 g Körpergewicht erhalten an 3 Tagen einmal täglich peroral die Prüfsubstanz gelöst in Polyäthylenglykol 400. Am 4. Tag werden die Tiere zweimal, morgens und abends, behandelt. Nach der letzten Behandlung wird den Tieren das Futter entzogen. Sechzehn Stunden später werden die Ratten getötet. Aus dem Blut wird Serum gewonnen.
Gleiche Mengen Serum von je 2 Ratten aus derselben Gruppe werden vereinigt, und 0.05 EDTA (Aethylendiamintetraessigsäure) und 0,01 % Thimerosal werden zugesetzt. Die Serumlipoproteine werden durch Ultrazentrifugieren in einem Beckman 40.3 Rotor isoliert. Die VLDL (very low density lipoproteins) werden durch 24-stündiges
Zentrifugieren bei 78 000 g und der Dichte 1.006 gewonnen, die LDL (low density lipoproteins) durch 24-stündiges Zentrifugieren bei 78 000 g und der Dichte 1,040, und die HDL (high density lipoproteins) durch 24-stündiges Zentrifugieren bei 109 000 g und der Dichte 1.21.
In jeder Serumprobe und in jeder Lipoproteinfraktion werden Cholesterin und Triglyceride mit enzymatischen Methoden bestimmt. LDL-Cholesterin wurde als wichtigster Parameter für die Beurteilung der Lipidsenkung betrachtet.
Literatur: K.R. Müller und R.G. Cortesi, Artery 4(6):564-577 (1978).
Die Zahlen der folgenden Resultate geben die Aenderungen vom LDL-Cholesterin in % der Kontrolle an. Dosierung: 50 mg/kg peroral.

[2] = Rattus norvegicus, po, read-out: ED50

Compound | ED50 [1, 2] | Aenderungen vom LDL-Cholesterin in % der Kontrolle (LDL-Cholesterin) | further results
CCOC1Oc2ccccc2-c2nc(-c3ccccn3)ncc21 (stereo not shown) [1-(2-Pyridyl)-5-äthoxy-5H-[1]benzopyrano[4,3-d]pyrimidin] | 15 mg/kg |  | 
CCOC1Oc2ccccc2-c2nc(-c3cccnc3)ncc21 (stereo not shown) [2-(3-Pyridyl)-5-äthoxy-5H-[1]benzopyrano[4,3-d]pyrimidin] | 1.5 mg/kg |  | 
CCCCOC1Oc2ccccc2-c2nc(-c3cccc(C)c3)ncc21 (stereo not shown) [2-(5-Methyl-phenyl)-5-butyloxy-5H-[1]benzopyrano[4,3-d]pyrimidin] |  | -29% | 
CCCCOC1Oc2ccccc2-c2nc(-c3cccnc3)ncc21 (stereo not shown) [2-(3-Pyridyl)-5-butyloxy-5H-[1]benzopyrano[4,3-d]pyrimidin] | 5 mg/kg |  | 
CCCOC1Oc2ccccc2-c2nc(-c3ccc(OC)cc3)ncc21 (stereo not shown) [2-(4-Methoxy-phenyl)-5-propyloxy-5H-[1]benzopyrano[4,3-d]pyrimidin] |  | -38% | 
CCOC1Oc2ccccc2-c2nc(-c3ccc(O)cc3)ncc21 (stereo not shown) [2-(4-Hydroxy-phenyl)-5-äthyloxy-5H-[1]benzopyrano[4,3-d]pyrimidin] |  | -69% | 
CCOC1Oc2ccccc2-c2nc(-c3ccccc3)ncc21 (stereo not shown) [2-Phenyl-5-äthoxy-5H-[1]benzopyrano[4,3-d]pyrimidin] |  | -61% | 
CCCOC1Oc2ccccc2-c2nc(-c3ccncc3)ncc21 (stereo not shown) [2-(4-Pyridyl)-5-propyloxy-5H-[1]benzopyrano[4,3-d]pyrimidin] | 15 mg/kg |  | 
6-Methyl-2-(3-pyridyl)-5-butyloxy-5H-[1]benzopyrano[4,3-d]pyrimidin |  |  | ED50 [1]: 60 mg/kg
CCCOC1Oc2ccccc2-c2nc(-c3cccc(OC)c3)ncc21 (stereo not shown) [2-(3-Methoxy-phenyl)-5-propyloxy-5H-[1]benzopyrano[4,3-d]pyrimidin] |  | -43% | 

Reference: patent EP0051177A2, “Pharmaceutical preparations containing substituted ether compounds, their use, substituted ether compounds and process for their preparation” (CIBA-GEIGY AG, priority 1980, dated 1982)
